Data taken from PubChem BioAssay (NCI).
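Interpolation was linear, between the two tested concentrations surrounding the appropriate level; five concentrations were tested over 48 hours in 96-well plates. TGI is the concentration that stops growth completely.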

Assays:
Experiment in all cases: inhibition of tumour cell growth, NCI panel, 48 h
OVCAR-8 ovarian = system: OVCAR-8 ovarian
A549 NSCLC = system: A549 NSCLC
HOP-62 NSCLC = system: HOP-62 NSCLC
M14 melanoma = system: M14 melanoma
NCI-H460 lung = system: NCI-H460 lung
HCC-2998 colon = system: HCC-2998 colon
KM20L2 colon = system: KM20L2 colon
HT29 colon = system: HT29 colon
LOX IMVI melanoma = system: LOX IMVI melanoma
TK-10 renal = system: TK-10 renal
SK-MEL-2 melanoma = system: SK-MEL-2 melanoma
DMS 114 small cell lung = system: DMS 114 small cell lung
DMS 273 small cell lung = system: DMS 273 small cell lung
NCI-H522 lung = system: NCI-H522 lung
EKVX NSCLC = system: EKVX NSCLC
COLO 205 colon = system: COLO 205 colon
SF-268 CNS = system: SF-268 CNS
SF-295 CNS = system: SF-295 CNS
UACC-257 melanoma = system: UACC-257 melanoma
SK-OV-3 ovarian = system: SK-OV-3 ovarian
SF-539 CNS = system: SF-539 CNS
SW-620 colon = system: SW-620 colon
HCT-15 colon = system: HCT-15 colon
SK-MEL-28 melanoma = system: SK-MEL-28 melanoma
DLD-1 colon = system: DLD-1 colon
RXF 393 renal = system: RXF 393 renal
CAKI-1 renal = system: CAKI-1 renal
M19-MEL melanoma = system: M19-MEL melanoma
MOLT-4 leukemia = system: MOLT-4 leukemia
OVCAR-5 ovarian = system: OVCAR-5 ovarian
HCT-116 colon = system: HCT-116 colon
U251 CNS = system: U251 CNS
SN12C renal = system: SN12C renal
K-562 leukemia = system: K-562 leukemia
CCRF-CEM leukemia = system: CCRF-CEM leukemia
786-0 renal = system: 786-0 renal
RPMI-8226 leukemia = system: RPMI-8226 leukemia
SK-MEL-5 melanoma = system: SK-MEL-5 melanoma
HL-60(TB) leukemia = system: HL-60(TB) leukemia
ACHN renal = system: ACHN renal
SR leukemia = system: SR leukemia
NCI-H23 lung = system: NCI-H23 lung
SNB-78 CNS = system: SNB-78 CNS
SNB-75 CNS = system: SNB-75 CNS
LXFL 529 NSCLC = system: LXFL 529 NSCLC
NCI-H226 lung = system: NCI-H226 lung
MALME-3M melanoma = system: MALME-3M melanoma
UO-31 renal = system: UO-31 renal
SNB-19 CNS = system: SNB-19 CNS
OVCAR-3 ovarian = system: OVCAR-3 ovarian
IGROV1 ovarian = system: IGROV1 ovarian
UACC-62 melanoma = system: UACC-62 melanoma
OVCAR-4 ovarian = system: OVCAR-4 ovarian
KM12 colon = system: KM12 colon
A498 renal = system: A498 renal

## COC(=O)C1=C(C(=O)OC)C2C(C)=CC(C)=CN2C(C#N)=C(SC)S1 (stereo unspecified)
OVCAR-8 ovarian
  TGI: 65.9 µM
A549 NSCLC
  TGI: > 100 µM
HOP-62 NSCLC
  TGI: > 100 µM
M14 melanoma
  TGI: 35.2 µM
NCI-H460 lung
  TGI: > 100 µM
HCC-2998 colon
  TGI: 94.5 µM
KM20L2 colon
  TGI: 86.7 µM
HT29 colon
  TGI: 44.6 µM
LOX IMVI melanoma
  TGI: 35.4 µM
TK-10 renal
  TGI: 69.8 µM
SK-MEL-2 melanoma
  TGI: 45.8 µM
DMS 114 small cell lung
  TGI: 54.7 µM
DMS 273 small cell lung
  TGI: > 100 µM
NCI-H522 lung
  TGI: 46.7 µM
EKVX NSCLC
  TGI: 64.9 µM
COLO 205 colon
  TGI: 34.4 µM
SF-268 CNS
  TGI: 56.8 µM
SF-295 CNS
  TGI: > 100 µM
UACC-257 melanoma
  TGI: 64.3 µM
SK-OV-3 ovarian
  TGI: > 100 µM
SF-539 CNS
  TGI: 61.4 µM
SW-620 colon
  TGI: 42.7 µM
HCT-15 colon
  TGI: 44 µM
SK-MEL-28 melanoma
  TGI: 41.8 µM
DLD-1 colon
  TGI: 49.2 µM
RXF 393 renal
  TGI: 30.6 µM
CAKI-1 renal
  TGI: 41.5 µM
M19-MEL melanoma
  TGI: 33.8 µM
MOLT-4 leukemia
  TGI: 77.3 µM
OVCAR-5 ovarian
  TGI: 84.7 µM
HCT-116 colon
  TGI: 29.6 µM
U251 CNS
  TGI: > 100 µM
SN12C renal
  TGI: 52.6 µM
K-562 leukemia
  TGI: 55.3 µM
CCRF-CEM leukemia
  TGI: 56.5 µM
786-0 renal
  TGI: 73.2 µM
RPMI-8226 leukemia
  TGI: 64.1 µM
SK-MEL-5 melanoma
  TGI: 30.7 µM
HL-60(TB) leukemia
  TGI: 42.7 µM
ACHN renal
  TGI: 60.5 µM
SR leukemia
  TGI: 50.5 µM
NCI-H23 lung
  TGI: 36.4 µM
SNB-78 CNS
  TGI: > 100 µM
SNB-75 CNS
  TGI: > 100 µM
LXFL 529 NSCLC
  TGI: 37.6 µM
NCI-H226 lung
  TGI: 39.9 µM
MALME-3M melanoma
  TGI: 48.3 µM
UO-31 renal
  TGI: 26.8 µM
SNB-19 CNS
  TGI: > 100 µM
OVCAR-3 ovarian
  TGI: 72.7 µM

## CS/C(=N\C(=S)Nc1ccccc1)Nc1ccccc1
OVCAR-8 ovarian
  TGI: 77.4 µM
A549 NSCLC
  TGI: 59.2 µM
HOP-62 NSCLC
  TGI: > 100 µM
IGROV1 ovarian
  TGI: 97.6 µM
M14 melanoma
  TGI: 96.1 µM
NCI-H460 lung
  TGI: 48.7 µM
HCC-2998 colon
  TGI: 57 µM
KM20L2 colon
  TGI: > 100 µM
HT29 colon
  TGI: 33.1 µM
LOX IMVI melanoma
  TGI: 38.2 µM
TK-10 renal
  TGI: 54.7 µM
SK-MEL-2 melanoma
  TGI: 56.4 µM
DMS 114 small cell lung
  TGI: 52.6 µM
NCI-H522 lung
  TGI: 38 µM
COLO 205 colon
  TGI: 78.1 µM
SF-268 CNS
  TGI: > 100 µM
UACC-62 melanoma
  TGI: 53.6 µM
SF-295 CNS
  TGI: 97 µM
SK-OV-3 ovarian
  TGI: 58.9 µM
SW-620 colon
  TGI: > 100 µM
HCT-15 colon
  TGI: 58.1 µM
SK-MEL-28 melanoma
  TGI: > 100 µM
RXF 393 renal
  TGI: 48.4 µM
CAKI-1 renal
  TGI: 54.7 µM
M19-MEL melanoma
  TGI: 81 µM
MOLT-4 leukemia
  TGI: 85.7 µM
OVCAR-5 ovarian
  TGI: 77.3 µM
OVCAR-4 ovarian
  TGI: > 100 µM
U251 CNS
  TGI: > 100 µM
SN12C renal
  TGI: 67.6 µM
K-562 leukemia
  TGI: > 100 µM
RPMI-8226 leukemia
  TGI: 62.1 µM
SK-MEL-5 melanoma
  TGI: 21.5 µM
KM12 colon
  TGI: > 100 µM
HL-60(TB) leukemia
  TGI: 39.2 µM
A498 renal
  TGI: 81.5 µM
ACHN renal
  TGI: 70.7 µM
SR leukemia
  TGI: 64.1 µM
NCI-H23 lung
  TGI: > 100 µM
SNB-78 CNS
  TGI: > 100 µM
SNB-75 CNS
  TGI: 84.7 µM
NCI-H226 lung
  TGI: 70.5 µM
MALME-3M melanoma
  TGI: 60.4 µM
UO-31 renal
  TGI: 43.1 µM
SNB-19 CNS
  TGI: 94.6 µM
OVCAR-3 ovarian
  TGI: 48 µM
